From patent US10112941B2, “Tricyclic compounds as anticancer agents” (BRISTOL-MYERS SQUIBB COMPANY, priority 2013, dated 2018) come the findings set out here.

Each structure is given as a SMILES string. A value given as a limit tells only on which side of the number the result lay.

This experiment addresses BRD4 (Homo sapiens, UniProt O60885). Nature of the experiment: Time Resolved Fluorescence Resonance Energy Transfer (TR-FRET) binding assay, BRD4. Conditions: one of the FRET assays described; read-out: FRET BRD4 IC50. In general terms: Time-resolved FRET reads energy transfer from a long-lived donor to a nearby acceptor.

What is called IC50 is the concentration that inhibits the measured activity by half. On to `Cc1noc(C)c1-c1cnc2c3ccc(C(C)(C)O)c(F)c3n(C(c3ccc(F)cc3)C3CCOCC3)c2c1` (single isomer, unassigned) [Example 81, 2-[3-(Dimethyl-1,2-oxazol-4-yl)-6-fluoro-5-[(4-fluorophenyl)(oxan-4-yl)methyl]-5H-pyrido[3,2-b]indol-7-yl]propan-2-ol], for which the concentration for half-maximal inhibition (IC50) was under 5 nM.
Regarding `[2H]C([2H])([2H])c1nnn(C)c1-c1cnc2c3c(OC)ccc(S(C)(=O)=O)c3n([C@H](c3ccccc3)C3CCOCC3)c2c1` [Example 183, 5-{6-Methanesulfonyl-9-methoxy-5-[(S)-oxan-4-yl(phenyl)methyl]-5H-pyrido[3,2-b]indol-3-yl}-4-(^2H3)methyl-1-methyl-1H-1,2,3-triazole], the IC50 is under 5 nM.
Then `Cc1noc(C)c1-c1cnc2c3ccc(C(C)(C)O)cc3n([C@H](c3ccc(F)cc3)C3CCC3)c2c1` [Example 15], with under 5 nM; and `Cn1nnc(Br)c1-c1cnc2c3cc(Br)c(C(C)(C)O)cc3n([C@H](c3ccccc3)C3CCOCC3)c2c1` [Example 383, 2-[8-Bromo-3-(4-bromo-1-methyl-1H-1,2,3-triazol-5-yl)-5-[(S)-oxan-4-yl(phenyl)methyl]-5H-pyrido[3,2-b]indol-7-yl]propan-2-ol], with under 5 nM.
Then `[2H]C([2H])([2H])c1onc(C)c1-c1cnc2c3c(OC)ccc(S(=O)(=O)C([2H])([2H])[2H])c3n([C@H](c3ccccc3)C3CCOCC3)c2c1` [Example 193, 4-[6-(^2H3)Methanesulfonyl-9-methoxy-5-[(S)-oxan-4-yl(phenyl)methyl]-5H-pyrido[3,2-b]indol-3-yl]-5-(^2H3)methyl-3-methyl-1,2-oxazole], with under 5 nM; and `[2H]C([2H])([2H])c1nnn(C)c1-c1cnc2c3c(OC)ccc(S(C)(=O)=O)c3n([C@H](c3ccccc3F)C3CCOCC3)c2c1` [Example 189, 5-{5-[(S)-(2-Fluorophenyl)(oxan-4-yl)methyl]-6-methanesulfonyl-9-methoxy-5H-pyrido[3,2-b]indol-3-yl}-4-(^2H3)methyl-1-methyl-1H-1,2,3-triazole], with under 5 nM.
With `[2H]C([2H])([2H])Oc1nnn(C)c1-c1cnc2c3ccc(C(C)(C)O)cc3n([C@H](c3ccccc3)C3CCOCC3)c2c1` [Example 378, 2-{3-[4-(^2H3)Methoxy-1-methyl-1H-1,2,3-triazol-5-yl]-5-[(S)-oxan-4-yl(phenyl)methyl]-5H-pyrido[3,2-b]indol-7-yl}propan-2-ol] the figure was under 5 nM; with `Cc1nnn(C)c1-c1cnc2c3ccc(C(C)(C)O)cc3n(C(c3ccc(F)c(F)c3)C3CCOCC3)c2c1` (single isomer, unassigned) [Example 97, 2-{5-[(3,4-Difluorophenyl)(oxan-4-yl)methyl]-3-(dimethyl-1H-1,2,3-triazol-5-yl)-5H-pyrido[3,2-b]indol-7-yl}propan-2-ol], under 5 nM.
As to `Cc1noc(C)c1-c1cnc2c3ccc(C(C)(C)O)cc3n(Cc3ccccc3)c2c1` [Example 46, 2-[5-Benzyl-3-(dimethyl-1,2-oxazol-4-yl)-5H-pyrido[3,2-b]indol-7-yl]propan-2-ol], the 50% inhibitory concentration (IC50) is under 1500 nM.
Then `Cc1noc(C)c1-c1cnc2c3ccc(C(C)(C)O)cc3n(C(c3ncccc3F)C3CCOCC3)c2c1` (single isomer, unassigned) [Example 345, 2-[3-(Dimethyl-1,2-oxazol-4-yl)-5-[(3-fluoropyridin-2-yl)(oxan-4-yl)methyl]-5H-pyrido[3,2-b]indol-7-yl]propan-2-ol], with under 5 nM; and `Cc1nnn(C)c1-c1cnc2c3ccc(C(C)(C)O)cc3n([C@@H](c3ccccc3F)C3CCOCC3)c2c1` [Example 65], with under 5 nM.
Then `Cc1nnn(C)c1-c1cnc2c3ccc(C(C)(C)O)cc3n([C@H](CCC(F)(F)F)c3ccccc3)c2c1` [Example 58], with under 5 nM; and `[2H]C([2H])([2H])c1nnn(C)c1-c1cnc2c3c(OC)cc(S(C)(=O)=O)cc3n(C(c3ncccc3F)C3CCC(F)(F)CC3)c2c1` (single isomer, unassigned) [Example 213, 2-[(4,4-Difluorocyclohexyl)({7-methanesulfonyl-9-methoxy-3-[4-(^2H3)methyl-1-methyl-1H-1,2,3-triazol-5-yl]-5H-pyrido[3,2-b]indol-5-yl})methyl]-3-fluoropyridine], with under 5 nM.
As to `Cc1noc(C)c1-c1cnc2c3ccc(C(C)(C)O)cc3n(CC3CCOCC3)c2c1` [Example 47], the concentration for half-maximal inhibition (IC50) was under 25 nM.
As for `Cc1noc(C)c1-c1cnc2c3ccccc3n(Cc3ccccc3)c2c1` [Example 51, 4-(5-Benzyl-5H-pyrido[3,2-b]indol-3-yl)-3,5-dimethyl-1,2-oxazole], the IC50 was under 1500 nM.
Then `[2H]C([2H])([2H])c1nnn(C)c1-c1cnc2c3c(OCC(C)(F)F)ccc(S(C)(=O)=O)c3n([C@H](c3ccccc3)C3CCOCC3)c2c1` [Example 230, 5-[9-(2,2-Difluoropropoxy)-6-methanesulfonyl-5-[(S)-oxan-4-yl(phenyl)methyl]-5H-pyrido[3,2-b]indol-3-yl]-4-(^2H3)methyl-1-methyl-1H-1,2,3-triazole], with under 5 nM; and `Cc1nnn(C)c1-c1cnc2c3ccc(C(=O)N4CC(F)C4)cc3n([C@H](c3ccccc3)C3CCOCC3)c2c1` [Example 413, 5-[7-(3-Fluoroazetidine-1-carbonyl)-5-[(S)-oxan-4-yl(phenyl)methyl]-5H-pyrido[3,2-b]indol-3-yl]-1,4-dimethyl-1H-1,2,3-triazole], with under 5 nM; and `Cc1nnn(C)c1-c1cnc2c3ccc(C(C)(C)O)cc3n(C(c3cc(Cl)ccn3)C3CCOCC3)c2c1` (single isomer, unassigned) [Example 297], with under 5 nM.
For `Cc1noc(C)c1-c1cnc2c3ccc(C(C)(C)O)cc3n(C(CCC(F)(F)F)c3cocn3)c2c1` (single isomer, unassigned) [Example 34, 2-[3-(Dimethyl-1,2-oxazol-4-yl)-5-[4,4,4-trifluoro-1-(1,3-oxazol-4-yl)butyl]-5H-pyrido[3,2-b]indol-7-yl]propan-2-ol], the half-inhibitory concentration (IC50) was under 5 nM.
On to `Cc1nnn(C)c1-c1cnc2c3ccc(C(C)(C)O)c(F)c3n(C(c3ccncc3F)C3CCOCC3)c2c1` (single isomer, unassigned) [Example 288], for which the IC50 is under 5 nM.
`[2H]C([2H])(O)c1ccc2c3ncc(-c4c(C)nnn4C)cc3n([C@H](c3ccccc3)C3CCOCC3)c2c1` [Example 407, [3-(Dimethyl-1H-1,2,3-triazol-5-yl)-5-[(S)-oxan-4-yl(phenyl)methyl]-5H-pyrido[3,2-b]indol-7-yl](^2H2)methanol]: the IC50 is under 5 nM.
With `Cc1nnn(C)c1-c1cnc2c3ccc(C(C)(C)O)cc3n(C(c3ccc(F)cc3F)C3CCOCC3)c2c1` (single isomer, unassigned) [Example 136, 2-{5-[(2,4-Difluorophenyl)(oxan-4-yl)methyl]-3-(dimethyl-1H-1,2,3-triazol-5-yl)-5H-pyrido[3,2-b]indol-7-yl}propan-2-ol] the figure was under 5 nM; with `Cc1nnn(C)c1-c1cnc2c3ccc(C(N)=O)c(F)c3n([C@H](c3ccccc3)C3CCOCC3)c2c1` [Example 460, 3-(Dimethyl-1H-1,2,3-triazol-5-yl)-6-fluoro-5-[(S)-oxan-4-yl(phenyl)methyl]-5H-pyrido[3,2-b]indole-7-carboxamide], under 5 nM.
